ChEMBL document CHEMBL2321651, “Structure-activity relationship study on benzoic acid part of diphenylamine-based retinoids” (Bioorg Med Chem Lett, 2013)
Calls of active or inactive are those of the source. No cut-off for these calls is given here.

Experiments:
HL-60 [1] = test: Induction of human HL60 cell differentiation in presence of 1 x 10^-10 M RAR agonist Am80; type: functional, cell-based
Retinoid X receptor = molecular target: T1, Retinoid X receptor (Homo sapiens, UniProt P28702+P48443+P19793); test: Agonist activity at RXR (unknown origin) in presence of RAR agonist Am80; type: protein assay
T1 sequence (P28702 whole entry): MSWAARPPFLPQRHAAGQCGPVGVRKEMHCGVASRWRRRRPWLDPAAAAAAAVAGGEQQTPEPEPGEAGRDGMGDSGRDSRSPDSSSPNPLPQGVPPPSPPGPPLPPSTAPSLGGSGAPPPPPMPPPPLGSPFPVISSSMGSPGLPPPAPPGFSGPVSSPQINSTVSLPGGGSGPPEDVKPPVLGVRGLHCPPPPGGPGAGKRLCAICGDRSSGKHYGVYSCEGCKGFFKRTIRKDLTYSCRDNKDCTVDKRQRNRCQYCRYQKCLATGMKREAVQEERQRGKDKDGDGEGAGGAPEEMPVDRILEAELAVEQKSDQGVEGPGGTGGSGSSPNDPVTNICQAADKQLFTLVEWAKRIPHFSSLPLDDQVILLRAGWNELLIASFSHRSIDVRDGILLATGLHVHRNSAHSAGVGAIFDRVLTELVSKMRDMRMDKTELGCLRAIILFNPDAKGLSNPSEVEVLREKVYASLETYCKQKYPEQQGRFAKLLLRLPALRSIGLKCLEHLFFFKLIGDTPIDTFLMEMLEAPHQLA
T1 sequence (P48443 whole entry): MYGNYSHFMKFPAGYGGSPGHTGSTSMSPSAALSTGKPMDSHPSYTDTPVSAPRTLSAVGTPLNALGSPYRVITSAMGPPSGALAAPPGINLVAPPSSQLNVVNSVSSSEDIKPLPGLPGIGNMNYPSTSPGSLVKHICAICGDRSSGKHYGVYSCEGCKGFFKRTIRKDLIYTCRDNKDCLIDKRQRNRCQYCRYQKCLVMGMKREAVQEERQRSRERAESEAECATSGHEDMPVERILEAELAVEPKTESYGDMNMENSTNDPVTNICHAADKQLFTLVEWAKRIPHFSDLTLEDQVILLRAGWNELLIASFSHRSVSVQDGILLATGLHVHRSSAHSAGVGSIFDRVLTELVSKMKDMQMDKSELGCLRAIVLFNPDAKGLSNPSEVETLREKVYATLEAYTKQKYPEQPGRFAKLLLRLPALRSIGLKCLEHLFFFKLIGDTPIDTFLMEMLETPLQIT
T1 sequence (P19793 whole entry): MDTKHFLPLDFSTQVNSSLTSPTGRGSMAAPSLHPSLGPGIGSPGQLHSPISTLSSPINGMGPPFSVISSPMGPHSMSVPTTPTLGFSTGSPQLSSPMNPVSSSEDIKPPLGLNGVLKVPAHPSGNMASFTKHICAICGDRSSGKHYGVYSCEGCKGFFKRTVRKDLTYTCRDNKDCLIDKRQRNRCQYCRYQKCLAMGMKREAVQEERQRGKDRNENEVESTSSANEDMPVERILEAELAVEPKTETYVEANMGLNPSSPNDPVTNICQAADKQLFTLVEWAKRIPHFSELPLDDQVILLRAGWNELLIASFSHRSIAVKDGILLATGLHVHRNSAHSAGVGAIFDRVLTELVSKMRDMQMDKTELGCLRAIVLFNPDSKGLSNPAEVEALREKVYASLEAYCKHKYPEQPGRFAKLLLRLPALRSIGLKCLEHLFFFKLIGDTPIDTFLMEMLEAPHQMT

HL-60 [2] = test: Induction of human HL60 cell differentiation; type: functional, cell-based
[3] = Agonist activity at RAR/RXR (unknown origin) in presence of RAR agonist Am80; set-up: species or system Homo sapiens
[4] = Agonist activity at RAR/RXR (unknown origin); set-up: species or system Homo sapiens
HL-60 [5] = test: Induction of human HL60 cell differentiation at 3.3 x 10^-10 M; type: functional
HL-60 [6] = test: Induction of human HL60 cell differentiation at 1 x 10^-10 M; type: functional
HL-60 [7] = test: Inhibition of Am80-induced human HL60 cell differentiation; type: cell-based

SMILES | Activity (HL-60 [1]) | Activity (HL-60 [2]) | other results
Cc1cc2c(cc1N(C)c1ccc(C(=O)O)cc1)C(C)(C)CCC2(C)C | Active | Active | EC50 (Retinoid X receptor): 1.3 ×10⁻¹⁰ M
CCCN(c1ccc(/C=C/C(=O)O)cc1)c1cc2c(cc1C)C(C)(C)CCC2(C)C | Active | Active | –
CCCN(c1ccc(CCC(=O)O)cc1)c1cc2c(cc1C)C(C)(C)CCC2(C)C | Active | Active | –
CCCN(c1ccc(CCC(=O)O)cc1)c1ccc2c(c1)C(C)(C)CCC2(C)C | Active | Active | –
Cc1cc2c(cc1N(C)c1ccc(CCC(=O)O)cc1)C(C)(C)CCC2(C)C | Active | Active | –
CCCN(c1ccc(C(=O)O)cc1)c1cc2c(cc1C)C(C)(C)CCC2(C)C | Active | – | EC50 (Retinoid X receptor): 1.4 ×10⁻¹⁰ M
Cc1cc2c(cc1N(C)c1ccc(/C=C/C(=O)O)cc1)C(C)(C)CCC2(C)C | Active | – | EC50 (HL-60 [2]): 38 nM
CCCN(c1ccc(C(=O)O)cc1)c1ccc2c(c1)C(C)(C)CCC2(C)C | Active | – | EC50 [3]: 1.5 nM; EC50 [4]: Not Active
CC1(C)CCC(C)(C)c2cc(NC(=O)c3ccc(C(=O)O)cc3)ccc21 [TAMIBAROTENE] | – | – | Activity (HL-60 [5]): 60%; Activity (HL-60 [6]): 5%
CN(c1ccc(C(=O)O)cc1)c1ccc2c(c1)C(C)(C)CCC2(C)C | – | Active | EC50 [3]: 6.6 nM; EC50 ([4]; read-out: EC50): 360 nM
CN(c1ccc(/C=C/C(=O)O)cc1)c1ccc2c(c1)C(C)(C)CCC2(C)C | Active | – | EC50 (HL-60 [2]): 22 nM
Cc1cc(C(=O)O)ccc1N(C)c1ccc2c(c1)C(C)(C)CCC2(C)C | inactive | inactive | inhibition (INH) (HL-60 [7]): Dose-dependent effect
CN(c1ccc(CCC(=O)O)cc1)c1ccc2c(c1)C(C)(C)CCC2(C)C | Active | Active | –
CCCN(c1ccc(/C=C/C(=O)O)cc1)c1ccc2c(c1)C(C)(C)CCC2(C)C | Active | Active | –
